Measured values from patent US8962608B2, “Cycloalkylnitrile pyrazole carboxamides as janus kinase inhibitors” (Merck Sharp & Dohme Corp., priority 2011, dated 2015).

Biological target: JAK2 (recombinant purified GST-tagged catalytic domain) (Homo sapiens (Human), UniProt O60674)
Test: biochemical
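Also: biochemical JAK kinase assay with HTRF detection.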

Chain of JAK2 (recombinant purified GST-tagged catalytic domain) (O60674 849-1124): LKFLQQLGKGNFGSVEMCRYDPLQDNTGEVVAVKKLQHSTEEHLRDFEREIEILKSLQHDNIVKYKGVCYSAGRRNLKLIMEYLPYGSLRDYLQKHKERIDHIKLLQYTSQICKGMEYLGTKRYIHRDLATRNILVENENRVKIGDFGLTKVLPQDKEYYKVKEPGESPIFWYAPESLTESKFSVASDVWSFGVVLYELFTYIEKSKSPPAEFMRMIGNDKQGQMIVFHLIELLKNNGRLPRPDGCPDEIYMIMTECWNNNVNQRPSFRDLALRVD

Structure (SMILES) | IC50 [µM]
CC(C)(C)OC(=O)N[C@@H]1CC[C@H](C#N)C(n2cc(C(N)=O)c(Nc3ccc(F)cc3)n2)C1 (single isomer, unassigned) [Example 44-2, tert-Butyl[(1R,3S,4S or 1S,3R,4R)-3-{4-carbamoyl-3-[(4-fluorophenyl)amino]-1H-pyrazol-1-yl}-4-cyanocyclohexyl]carbamate] | 0.99
CN(C)[C@H]1CC[C@@H](n2cc(C(N)=O)c(Nc3ccc(C(F)(F)F)nc3)n2)[C@H](C#N)C1 (single isomer, unassigned) [Example 28-27, 1-[(1R,2R,4S or 1S,2S,4R)-2-cyano-4-(dimethylamino)cyclohexyl]-3-{[6-(trifluoromethyl)pyridin-3-yl]amino}-1H-pyrazole-4-carboxamide] | 0.8
N#C[C@H]1C[C@H](NCCC(F)(F)F)CC[C@@H]1n1cc(C(N)=O)c(Nc2ccc(S(=O)(=O)C(F)(F)F)cc2)n1 (single isomer, unassigned) [Example 28-167, 1-{(1S,2S,4R or 1R,2R,4S)-2-cyano-4-[(3,3,3-trifluoropropyl)amino]cyclo-hexyl}-3-({4-[(trifluoro-methyl)sulfonyl]phenyl}amino)-1H-pyrazole-4-carboxamide] | 0.082
N#C[C@H]1C[C@H](NCc2c(F)cccc2F)CC[C@@H]1n1cc(C(N)=O)c(Nc2ccc(C(F)(F)F)cc2)n1 (single isomer, unassigned) [Example 30-13, 1-{(1S,2S,4R or 1R,2R,4S)-2-cyano-4-[(2,6-difluoro-benzyl)amino]cyclohexyl}-3-{[4-(trifluoromethyl)phenyl]amino}-1H-pyrazole-4-carboxamide] | 0.5
C[C@H](N[C@@H]1CC[C@H](n2cc(C(N)=O)c(Nc3ccc(C(F)(F)F)nc3)n2)[C@@H](C#N)C1)C1CC1 (single isomer, unassigned) [Example 28-19, 1-[(1S,2S,4R or 1R,2R,4S)-2-cyano-4-{[(1S)-1-cyclopropylethyl]amino}cyclo-hexyl]-3-{[6-(trifluoromethyl)pyridin-3-yl]amino}-1H-pyrazole-4-carboxamide] | 0.675
CC(C)(C)N[C@H]1CCC(n2cc(C(N)=O)c(Nc3ccccc3)n2)[C@@H](C#N)C1 (single isomer, unassigned) [Example 28-215, 1-[(1S,2S,4S or 1R,2R,4R)-4-(tert-butylamino)-2-cyanocyclohexyl]-3-(phenylamino)-1H-pyrazole-4-carboxamide] | 0.028
C[C@@H](N[C@@H]1CC[C@H](n2cc(C(N)=O)c(Nc3ccc(S(=O)(=O)C(F)(F)F)cc3)n2)[C@@H](C#N)C1)C1CC1 (single isomer, unassigned) [Example 28-183, 1-{(1S,2S,4R or 1R,2R,4S)-2-cyano-4-[(1-cyclopropylethyl)amino]cyclo-hexyl}-3-({4-[(trifluoromethyl)sulfonyl]phen-yl}amino)-1H-pyrazole-4-carboxamide] | 0.061
CC(C)(N[C@H]1CCC(n2cc(C(N)=O)c(Nc3ccccc3)n2)[C@@H](C#N)C1)C1CC1 (single isomer, unassigned) [Example 28-214, 1-{(1S,2S,4S or 1R,2R,4R)-2-cyano-4-[(1-cyclopropyl-1-methylethyl)amino]cyclohexyl}-3-(phenylamino)-1H-pyrazole-4-carboxamide] | 0.038
N#C[C@H]1CCCC[C@@H]1n1cc(C(N)=O)c(Nc2ccc(Cl)c(F)c2)n1 (racemic) [Example 17-56, 3-[(4-chloro-3-fluorophenyl)amino]-1-[(1S,2S and 1R,2R)-2-cyanocyclohexyl]-1H-pyrazole-4-carboxamide] | 0.037
N#C[C@H]1C[C@@H](N2CCC2)CC[C@@H]1n1cc(C(N)=O)c(Nc2ccc(Cl)c(F)c2)n1 (single isomer, unassigned) [Example 28-36, 1-[(1S,2S,4S or 1R,2R,4R)-4-azetidin-1-yl-2-cyanocyclohexyl]-3-[(4-chloro-3-fluorophenyl)amino]-1H-pyrazole-4-carboxamide] | 0.084
N#C[C@H]1C[C@@H](OCC2CC2)CC[C@@H]1n1cc(C(N)=O)c(Nc2ccc(F)cc2)n1 (single isomer, unassigned) [Example 26-9, 1-[(1S,2S,4S or 1R,2R,4R)-2-cyano-4-(cyclopropylmethoxy)cyclohexyl]-3-[(4-fluorophenyl)amino]-1H-pyrazole-4-carboxamide] | 0.033
CC(N[C@@H]1CC[C@H](n2cc(C(N)=O)c(Nc3ccc(S(=O)(=O)C(F)(F)F)cc3)n2)[C@@H](C#N)C1)C1CC1 (single isomer, unassigned) [Example 28-177, 1-[(1S,2S,4R or 1R,2R,4S)-2-cyano-4-{[(1S)-1-cyclopropylethyl]amino}cyclo-hexyl]-3-({4-[(trifluoromethyl)sulfonyl]phen-yl]amino)-1H-pyrazole-4-carboxamide] | 0.043

The remaining lines, values ahead:

IC50 [µM] | Structure (SMILES)
0.028 | N#C[C@@H]1CCCC[C@H]1n1cc(C(N)=O)c(Nc2ccc(S(=O)(=O)C(F)F)cc2)n1 (single isomer, unassigned) [Example 43-5, 1-[(1S,2S or 1R,2R)-2-cyanocyclohexyl]-3-({4-[(difluoromethyl)sulfonyl]phenyl}amino)-1H-pyrazole-4-carboxamide]
0.014 | N#C[C@H]1C[C@@H](O)CC[C@@H]1n1cc(C(N)=O)c(Nc2ccc(Cl)nc2)n1 (single isomer, unassigned) [Example 33-14, 3-[(6-chloropyridin-3-yl)amino]-1-[(1S,2S,4S or 1R,2R,4R)-2-cyano-4-hydroxycyclohexyl]-1H-pyrazole-4-carboxamide]
0.025 | N#C[C@H]1C[C@H](O)CC[C@@H]1n1cc(C(N)=O)c(Nc2ccc(C3CC3)cc2)n1 (single isomer, unassigned) [Example 25-14, 1-[(1S,2S,4R or 1R,2R,4S)-2-cyano-4-hydroxycyclohexyl]-3-[(4-cyclopropylphenyl)amino]-1H-pyrazole-4-carboxamide]
0.004 | CC1(C)CN([C@H]2CC[C@H](n3cc(C(N)=O)c(Nc4ccc([C@@H](O)C(F)(F)F)cc4)n3)[C@@H](C#N)C2)C1 (single isomer, unassigned) [Example 28-61, 1-[(1S,2S,4S or 1R,2R,4R)-2-cyano-4-(3,3-dimethylazetidin-1-yl)cyclohexyl]-3-({4-[(1R or 1S)-2,2,2-trifluoro-1-hydroxyethyl]phenyl}amino)-1H-pyrazole-4-carboxamide]
0.008 | N#C[C@H]1C[C@@H](NCC2CC2)CC[C@@H]1n1cc(C(N)=O)c(Nc2ccc(S(=O)(=O)C(F)(F)F)cc2)n1 (single isomer, unassigned) [Example 28-172, 1-{(1S,2S,4S or 1R,2R,4R)-2-cyano-4-[(cyclopropylmethyl)amino]cyclo-hexyl}-3-({4-[(trifluoromethyl)sulfonyl]phen-yl}amino)-1H-pyrazolc-4-carboxamide]
0.004 | CC(C)(c1ccc(Nc2nn([C@H]3CCCC[C@@H]3C#N)cc2C(N)=O)cc1F)[C@@H](O)C(F)(F)F (single isomer, unassigned) [Example 17-33, 1-[(1S,2S or 1R,2R)-2-cyanocyclohexyl]-3-({3-fluoro-4-[(2R or 2S)-3,3,3-trifluoro-2-hydroxy-1,1-dimethylpropyl]phenyl}amino)-1H-pyrazole-4-carboxamide]
0.005 | CC1(C)CN([C@H]2CC[C@H](n3cc(C(N)=O)c(Nc4ccc([C@H](O)C(F)(F)F)cc4)n3)[C@@H](C#N)C2)C1 (single isomer, unassigned) [Example 28-93, 1-[(1S,2S,4S or 1R,2R,4R)-2-cyano-4-(3,3-dimethylazetidin-1-yl)cyclohexyl]-3-({4-[(1S or 1R)-2,2,2-trifluoro-1-hydroxyethyl]phenyl}amino)-1H-pyrazole-4-carboxamide]
0.011 | CC(C)(c1ccc(Nc2nn([C@H]3CCCC[C@@H]3C#N)cc2C(N)=O)cc1F)[C@H](O)C(F)(F)F (single isomer, unassigned) [Example 17-32, 1-[(1S,2S or 1R,2R)-2-cyanocyclohexyl]-3-({3-fluoro-4-[(2S or 2R)-3,3,3-trifluoro-2-hydroxy-1,1-dimethylpropyl]phenyl}amino)-1H-pyrazole-4-carboxamide]
0.018 | Cc1cc(Nc2nn([C@H]3CCCC[C@@H]3C#N)cc2C(N)=O)cnc1C#N (single isomer, unassigned) [Example 17-77, 1-[(1R,2R or 1S,2S)-2-cyanocyclohexyl]-3-[(6-cyano-5-methylpyridin-3-yl)amino]-1H-pyrazole-4-carboxamide]
0.013 | N#C[C@H]1C[C@@H](N2CCC2)CC[C@@H]1n1cc(C(N)=O)c(Nc2ccc([C@@H](O)C(F)(F)F)cc2)n1 (single isomer, unassigned) [Example 28-87, 1-[(1S,2S,4S or 1R,2R,4R)-4-azetidin-1-yl-2-cyanocyclohexyl]-3-({4-[(1R or 1S)-2,2,2-trifluoro-1-hydroxyethyl]phenyl}amino)-1H-pyrazole-4-carboxamide]
0.011 | N#C[C@H]1C[C@@H](N2CCC2)CC[C@@H]1n1cc(C(N)=O)c(Nc2ccc([C@H](O)C(F)(F)F)cc2)n1 (single isomer, unassigned) [Example 28-47, 1-[(1S,2S,4S or 1R,2R,4R)-4-azetidin-1-yl-2-cyanocyclohexyl]-3-({4-[(1S or 1R)-2,2,2-trifluoro-1-hydroxyethyl]phenyl}amino)-1H-pyrazole-4-carboxamide]
0.024 | CC1(C)CN([C@@H]2CC[C@H](n3cc(C(N)=O)c(Nc4ccc([C@@H](O)C(F)(F)F)cc4)n3)[C@@H](C#N)C2)C1 (single isomer, unassigned) [Example 28-81, 1-[(1S,2S,4R or 1R,2R,4S)-2-cyano-4-(3,3-dimethylazetidin-1-yl)cyclohexyl]-3-({4-[(1R or 1S)-2,2,2-trifluoro-1-hydroxyethyl]phenyl}amino)-1H-pyrazole-4-carboxamide]
0.026 | CN[C@H]1CC[C@H](n2cc(C(N)=O)c(Nc3ccc(Cl)c(F)c3)n2)[C@@H](C#N)C1 (single isomer, unassigned) [Example 28-43, 3-[(4-chloro-3-fluorophenyl)amino]-1-[(1S,2S,4S or 1R,2R,4R)-2-cyano-4-(methylamino)cyclohexyl]-1H-pyrazole-4-carboxamide]
